Data published in US20020106348A1, “Cancer therapeutics involving the administration of 2-methoxyestradiol and an agent that increases intracellular superoxide anion” (priority 2000, published 2002).
Where two headings read alike, the source gives them in different places.

Experiments:
[1] = test system: ML-1; assay: MTT assay, ML-1 leukemia cells; format: cell-based; conditions: Homo sapiens, ML1, ML-1 (wt p53)
[2] = test system: CEM; assay: MTT assay, CEM leukemia cells; format: cell-based; conditions: Homo sapiens, CCRF-CEM, CEM (mutant p53)
[3] = test system: Raji; assay: MTT assay, Raji cells; format: cell-based; conditions: Homo sapiens, Raji (mutant p53)
[4] = test system: normal lymphocytes; assay: MTT assay, normal lymphocytes from healthy donors; format: cell-based, human; conditions: normal lymphocytes from 8 healthy donors; MTT 72 h / 96 h
[5] = test system: AML cells; assay: MTT assay, primary AML cells; format: cell-based, human; conditions: 30 μM, 6 patients
[6] = test system: ALL cells; assay: MTT assay, primary ALL cells; format: cell-based, human; conditions: 30 μM, 2 patients
[7] = test system: HL-60; assay: Apoptosis / nucleosomal DNA fragmentation in HL-60 cells; format: cell-based, human
[8] = test system: leukemia cells from a CML (chronic myelogenous leukemia) patient in relapsed blast crisis; assay: Induction of apoptosis in primary leukemia cells from a CML patient; format: cell-based, human; conditions: in vitro
[9] = test system: normal lymphocytes; assay: DNA fragmentation in normal lymphocytes; format: cell-based, human; conditions: 0-30 μM, additional 3 days
[10] = test system: PHA-treated lymphocytes; assay: MTT assay, PHA-stimulated lymphocytes; format: cell-based, human; conditions: 3-day drug incubation
[11] = test system: CuZnSOD (SOD1) mRNA; assay: cDNA microarray assay of gene expression; format: cell-based, human; conditions: 5 h after 2-ME incubation; normalized by three internal standards
Excerpt: The Atlas™ Human cDNA Expression Array I and the Atlas™ Human Cancer cDNA Expression Array (ClonTech Laboratories, Inc.) were used in this study. One microgram of mRNA isolated from the control or drug-treated cells was converted to radioactive cDNA by reverse transcription in the presence of [α-^32P]-dATP. The ^32P-labeled cDNA was then denatured and hybridized to the eDNA expression arrays according to the procedures recommended by the manufacturer. The radioactivity on the membranes was quantified by a phosphoimager.

[12] = test system: SOD1 protein; assay: Immunoblot of SOD1 protein in ML-1 cells; format: cell-based, human; conditions: ML-1 cells at 10 h
[13] = test system: ML-1 cells; assay: Cellular O2^- by hydroethidine flow cytometry, ML-1 cells; format: cell-based, human; conditions: ML-1, 1 μM, 5 h; control 4.3
[14] = test system: CLL cells; assay: Cellular O2^- by hydroethidine flow cytometry, CLL cells; format: cell-based, human
Protocol: The method using hydroethidine to detect O2^− in tissue sections was adapted for quantitation of intracellular O2^− by flow cytometry analysis. This assay is based on the unique chemical properties of hydroethidine, a weak blue fluorescent dye which is selectively converted by O2^− to ethidium with a bright red fluorescence. The control and drug-treated cells (1.5×10^6/sample) were incubated with hydroethidine (20 ng/ml) for 60 min, washed twice with 3 ml PBS, resuspended in 2 ml PBS, and then analyzed within 1 h by flow cytometry, using the red laser channel.

[15] = test system: ML-1; assay: H2O2 generation in cell culture, ML-1 cells; format: cell-based, human
[16] = target: T1, human CuZnSOD (Homo sapiens, UniProt P00441); assay: In vitro SOD activity assay (xanthine/xanthine oxidase, XTT), human CuZnSOD; format: biochemical; conditions: purified enzyme; read-out: IC50, inhibition of human CuZnSOD
T1 construct: purchased Sigma
T1 sequence (P00441 whole entry): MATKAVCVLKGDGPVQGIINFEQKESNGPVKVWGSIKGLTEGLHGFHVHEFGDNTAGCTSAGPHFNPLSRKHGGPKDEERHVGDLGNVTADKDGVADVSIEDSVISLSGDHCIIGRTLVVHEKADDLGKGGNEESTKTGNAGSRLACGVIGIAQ

[17] = target: E. coli MnSOD (Escherichia coli, UniProt P00448); assay: In vitro SOD activity assay, E. coli MnSOD; format: biochemical; conditions: purified enzyme; read-out: IC50, inhibition of E. coli MnSOD
Sequence of E. coli MnSOD (P00448 whole entry): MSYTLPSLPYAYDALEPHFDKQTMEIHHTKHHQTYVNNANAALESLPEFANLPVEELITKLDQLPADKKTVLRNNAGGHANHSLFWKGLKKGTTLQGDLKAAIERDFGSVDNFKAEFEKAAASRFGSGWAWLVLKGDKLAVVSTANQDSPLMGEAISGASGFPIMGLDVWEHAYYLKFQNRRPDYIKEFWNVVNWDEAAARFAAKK
Protocol: A spectrophotometric assay was used to determine the effect of 2-methoxyestradiol (2-ME) on SOD activity in vitro with purified enzymes (bovine CuZnSOD from Boehringer Mannheim; human CuZnSOD and E. coli MnSOD from Sigma). The reactions contained 2.5 ml of 50 mM Na2CO3, 0.1 ml of 3 mM xanthine, 0.1 ml of 3 mM EDTA, and 0.1 ml of 0.8 mM XTT (3′-(1-[phenylamino-carbonyl]3,4-tetrazolium)-bis(4-methoxy-6-nitro)benzene-sulfonic acid hydrate), and the indicated concentrations of SOD and 2-ME. Xanthine oxidase (0.1 ml, 64 mU/ml) was added to start the reaction. After incubation at 24° C. for 30 min, the absorbance at 470 nm was measured. The relative activity (RA) of SOD was calculated by the following formula: […]
where a is the absorbance of reaction without SOD, b is the absorbance of reaction with SOD but without 2-ME, c is the absorbance of reaction with SOD in the presence of 2-ME. All values were subtracted by the background reading of the blank. In separate experiments using nitro blue tetrazolium or cytochrome c as substrates for SOD assay, 2-ME and DMSO (as a solvent for 2-ME) interfered with the calorimetric reaction. These artifacts preclude the use of NBT or cytochrome c as the substrates for measuring the effect of 2-ME on SOD activity. Neither 2-ME nor DMSO affect the calorimetric reaction of XTT.

[18] = test system: xanthine oxidase; assay: Effect on xanthine oxidase; format: biochemical; conditions: 1-100 μM
[19] = target: human DNA polymerase α (Homo sapiens, UniProt P09884); assay: Effect on DNA polymerase α; format: biochemical; conditions: 1-100 μM
Sequence of human DNA polymerase α (P09884 whole entry): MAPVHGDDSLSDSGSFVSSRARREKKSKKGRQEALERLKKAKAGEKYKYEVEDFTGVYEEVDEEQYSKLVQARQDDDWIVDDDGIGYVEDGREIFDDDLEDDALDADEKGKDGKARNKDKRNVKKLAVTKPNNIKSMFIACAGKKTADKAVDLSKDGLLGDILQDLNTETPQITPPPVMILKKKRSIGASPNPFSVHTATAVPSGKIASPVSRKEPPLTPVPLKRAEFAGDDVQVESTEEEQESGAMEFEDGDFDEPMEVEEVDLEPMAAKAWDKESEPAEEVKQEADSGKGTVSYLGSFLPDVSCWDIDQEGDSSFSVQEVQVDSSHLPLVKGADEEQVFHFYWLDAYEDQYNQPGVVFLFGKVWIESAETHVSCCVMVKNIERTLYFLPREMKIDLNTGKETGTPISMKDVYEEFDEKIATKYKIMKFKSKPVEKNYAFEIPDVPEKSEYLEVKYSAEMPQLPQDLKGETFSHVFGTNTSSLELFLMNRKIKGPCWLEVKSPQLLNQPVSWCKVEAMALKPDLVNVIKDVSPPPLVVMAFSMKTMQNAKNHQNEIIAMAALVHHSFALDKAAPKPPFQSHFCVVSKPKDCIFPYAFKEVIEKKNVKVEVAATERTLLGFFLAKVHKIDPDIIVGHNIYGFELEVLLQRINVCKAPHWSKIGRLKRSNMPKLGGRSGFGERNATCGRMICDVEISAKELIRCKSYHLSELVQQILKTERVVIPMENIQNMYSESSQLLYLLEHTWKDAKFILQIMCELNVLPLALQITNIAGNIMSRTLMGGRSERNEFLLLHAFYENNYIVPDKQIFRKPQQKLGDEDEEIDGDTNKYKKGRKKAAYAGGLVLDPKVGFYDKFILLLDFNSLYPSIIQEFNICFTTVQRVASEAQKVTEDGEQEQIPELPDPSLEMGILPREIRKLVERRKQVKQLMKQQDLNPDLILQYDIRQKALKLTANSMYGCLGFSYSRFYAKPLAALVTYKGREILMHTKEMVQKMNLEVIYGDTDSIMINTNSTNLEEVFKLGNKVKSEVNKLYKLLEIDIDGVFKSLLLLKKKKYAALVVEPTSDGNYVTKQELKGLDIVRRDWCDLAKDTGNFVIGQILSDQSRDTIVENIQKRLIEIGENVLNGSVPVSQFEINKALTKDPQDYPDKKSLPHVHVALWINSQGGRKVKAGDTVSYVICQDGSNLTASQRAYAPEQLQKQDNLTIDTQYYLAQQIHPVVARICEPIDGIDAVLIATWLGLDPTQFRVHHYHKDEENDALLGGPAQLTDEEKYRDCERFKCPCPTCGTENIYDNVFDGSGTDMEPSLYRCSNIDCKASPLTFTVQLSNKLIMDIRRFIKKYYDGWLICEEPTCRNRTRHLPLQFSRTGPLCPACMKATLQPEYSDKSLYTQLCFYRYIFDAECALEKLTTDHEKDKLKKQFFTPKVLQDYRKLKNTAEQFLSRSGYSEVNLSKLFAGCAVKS

[20] = test system: bovine alkaline phosphatase; assay: Effect on alkaline phosphatase (removal of 5'-phosphate from [14C]GMP); format: biochemical; conditions: 1-100 μM
[21] = test system: HL-60; assay: Release of cytochrome c to cytosol; format: cell-based, human
[22] = test system: leukemia cell lines; assay: Apoptosis induction in leukemia cell lines; format: cell-based, human; conditions: leukemia cell lines tested
[23] = test system: leukemia cell lines, primary CLL cells, and normal lymphocytes; assay: Cellular accumulation of [3H]2-ME; format: in vitro ADME, human; conditions: 1 μM [3H]2-ME, 5-h incubation
Protocol: To determine cellular uptake of 2-ME, cells were incubated with 1 μM [^3H]2-ME (0.5 μCi/ml) for 5 h and when washed twice with cold PBS. Radioactivity associated with the cell pellets or the culture medium was quantitated by liquid scintillation counting. 2-ME concentrations were calculated based on the specific radioactivity of [^3H]2-ME, cell number, and the mean cell volume as measured by a Coulter Counter equipped with a 256-Channelyzer. HPLC was used to analyze potential cellular metabolites of 2-ME. Cells were incubated with [^3H]2-ME (0.5 μCi/ml) for 5 h, washed twice with PBS, and then extracted with 50% methanol. The extracts were analyzed by HPLC equipped with a UV detector (284 nm) and an on-line liquid scintillation counter, using a μBondapak C18 reversed-phase column and the following running conditions: 1 ml/min; 0-5 min, 100% buffer A (water:acetontrile:acetic acid=59:40:1); 5-17 min, a linear gradient of 0->100% buffer B (water:acetontrile:acetic acid=39:60:1); 17-30 min, 100% B.

[24] = test system: CLL cells
[25] = test system: HL-60 cells

SMILES: COc1cc2c(cc1O)CC[C@@H]1[C@@H]2CC[C@]2(C)[C@@H](O)CC[C@@H]12 [2-ME, 1,3,5(10)-estratrien-2,3,17b-triol 2 methylether]
- IC50 [1]: < 1 µM
- IC50 [2]: < 1 µM
- IC50 [3]: < 1 µM
- cell survival [4]: no apparent loss of cell survival
- cell survival [5]: 49.6%
- cell survival [6]: 56.5%
- apoptotic morphology and nucleosomal DNA fragmentation ([7]; 1 μM, HL-60 (p53−)): Typical apoptotic morphology and nucleosomal DNA fragmentation were observed
- DNA fragmentation (apoptosis) in HL-60 cells ([7]; estrogen derivatives, FIG. 20): induced DNA fragmentation
- apoptosis in primary CML cells [8]: induced apoptosis
- nucleosomal DNA fragmentation [9]: no nucleosomal DNA fragmentation was detected
- viability of PHA-treated lymphocytes [10]: remained viable
- proliferation of PHA-treated lymphocytes ([10]; MTT, PHA 5 μg/ml): inhibited the proliferation
- expression of CuZnSOD mRNA, % of the control [11]: 236%
- increase of SOD1 protein [12]: 74%
- cellular O2^− content [13]: 6.3 arbitrary units
- O2^− increase ([14]; CLL cells, 30 μM): 226±37%
- cellular O2^− ([14]; primary leukemia cells from a CLL patient, 2-ME alone): significant accumulation of cellular O2^−
- H2O2 production [15]: concentration-dependent decrease of H2O2
- IC50 [16]: ~20 µM
- IC50 [17]: ~20 µM
- effect on xanthine oxidase [18]: little effect
- effect on DNA polymerase α [19]: little effect
- effect on alkaline phosphatase [20]: little effect
- cytosolic cytochrome c ([21]; at 12 and 14 h): significant amounts of cytosolic cytochrome c were detected
- cytosolic cytochrome c ([21]; during the first 10 h): no cytochrome c was present in cytosol
- concentrations inducing apoptosis [22]: 1 to 10 µM
- intracellular concentrating of drug [23]: approximately 10 fold
- cell survival ([24]; 30 μM, CLL cells, 31 patients): 32.7%
- sensitivity to single agent ([24]; 2-ME-resistant CLL cells): insensitive to either drug alone
- toxicity to CLL cells versus normal lymphocytes ([24]; 10 and 30 μM, p<0.0001): significantly more toxic to CLL cells than to normal lymphocytes
- sensitivity to single agent ([24]; CLL cells of the two sensitive patients): relatively sensitive
- cell survival in CLL cells ([24]; FIGS. 6-8, MTT 72-96 h): substantial loss of cell survival
- cell survival ([24]; primary leukemia cells from a CLL patient, 2-ME alone (FIG. 32)): loss of cell survival
- rhodamine-123 fluorescence intensity ([25]; 14 h exposure, control 70-100 arbitrary units): 20-40 units
- rhodamine-123 retention ([25]; by 22 h): almost all the cells had lost their ability to retain rhodamine-123
- rhodamine-123 retention ([25]; first 6 h of incubation): no obvious loss of dye retention
